Reference: patent US8735167B2, “Photoinduced signal amplification through externally sensitized photofragmentation in masked photosensitizers and photoamplified fluorescence turn-off system” (Colorado Seminary, which owns and operates The University …, priority 2007, dated 2014)

Columns and labels:
[1] = Pulse Field Gradient 19F NMR diffusion in N-n-octadecylurea organogels made in t-butyl benzene; format: physicochemical
Excerpt: The PFG NMR experiments allow for measuring diffusion coefficients of molecules of interest in complex mixtures, including gels. The successful photoamplification relies on adequate diffusion coefficients. The diffusion coefficients obtained for 4-trifluoromethylbenzophenone in gelated tert-butylbenzene and other solvents were within 10-15% of that in free (not gelated) solvents, which means that the gelation has no detrimental effect on photochemistry.

[2] = 19F PFG NMR diffusion in ionic liquid; format: physicochemical; conditions: in N-methyl-N,N,N-trioctylammonium bis-triflylamide
Excerpt: Another use of ionic liquids for photoamplified bioanalytical methods is for electrochemical detection. […] Unmasking of the sensitizer dramatically changes the redox properties of the system which can be utilized in electrochemical detection of photoamplification. Again, as mentioned above, ionic liquids can be gelated and used in a form of pixilated bioanalytical array. […] The ^19F PFG NMR measurements of diffusion of 4-(trifluoromethyl)benzophenone in N-methyl-N,N,N-trioctylammonium bis-triflylamide produced the translational diffusion coefficient of 9×10^−7 cm^2 s^−1, which is still adequate for bimolecular collisional quenching of triplet benzophenone, necessary for the photoamplification. N-Methyl-N,N,N-trioctylammonium bis-triflylamide is the most viscous ionic liquid which we tested in our experiments. Other, much less viscous ionic liquids, for example N,N-dimethyl-N,N-dihexylammonium bis-triflylamide, performed even better.

[3] = in non-polar solvents; cited from earlier work
[4] = Stern-Volmer fluorescence quenching of fluorene; format: physicochemical; design: unit not given here; conditions: fluorene 10^−5 M, in CH2Cl2
[5] = Stern-Volmer fluorescence quenching of p-terphenyl; format: physicochemical; design: unit not given here; conditions: p-terphenyl 10^−5 M
Excerpt: p-Oligophenylenes are known as durable fluorophores, and commonly used as a dye in dye lasers due to their resistance to photobleaching, a desirable characteristic for this application.

[6] = near diffusion controlled; previously shown; cited from earlier work

Q: For `O=C(c1ccccc1)c1ccc(C(F)(F)F)cc1` [4-trifluoromethyl-benzophenone, 4-trifluoromethylbenzophenone], which “Diffusion Coefficient” value ([1]; 0 % N-n-Octadecylurea, t-butyl benzene) is on record?
A: The value was 6.50 × 10^−6 cm^2 s^−1.

Q: What about the “Diffusion Coefficient” value ([1]; 2 % N-n-Octadecylurea, t-butyl benzene organogel) of the same molecule?
A: Its value is 5.32 × 10^−6 cm^2 s^−1.

Q: What about the “Diffusion Coefficient” value ([1]; 4 % N-n-Octadecylurea, t-butyl benzene organogel) of the same molecule?
A: Its value is 5.60 × 10^−6 cm^2 s^−1.

Q: And the “Diffusion Coefficient” value ([1]; 6 % N-n-Octadecylurea, t-butyl benzene organogel)?
A: Its value is 5.34 × 10^−6 cm^2 s^−1.

Q: And the “Difference of diffusion coefficient in gelated solvent from that in free (not gelated) solvent” value ([1]; gelated tert-butylbenzene and other solvents)?
A: The value was 10-15%.

Q: And the translational diffusion coefficient [2]?
A: Its translational diffusion coefficient is 9×10^−7 cm^2 s^−1.

Q: With `c1ccc2c(c1)Cc1ccccc1-2` [Fluorene] as the molecule, how does the fluorescence lifetime [3] read?
A: The fluorescence lifetime was 10 ns.

Q: With `CC1(C(O)(c2ccccc2)c2ccccc2)SCCCS1` [MDT BP adduct, 2-methyl-1,3-dithiane benzophenone adduct] as the molecule, how does the “Ksv, fluorescence quenching of fluorene” value [4] read?
A: The value was 2300.

Q: And the “Ksv, fluorescence quenching of p-terphenyl” value (from here on “Ksv … of p-terphenyl”) ([5]; in CH2Cl2)?
A: The value was 80.

Q: And the “Ksv … of p-terphenyl” value ([5]; in t-BuPh)?
A: The value was 40.

Q: What about the “rate of quenching of benzophenone triplet via electron transfer reduction” value [6] of the same molecule?
A: The value was 10^9 M^−1 s^−1.

Q: With `OC(c1ccccc1)c1ccccc1` [benzhydrol] as the molecule, how does the “Ksv … of p-terphenyl” value ([5]; in CH2Cl2) read?
A: Its value is “smaller than for MDT BP adduct”.

Q: For `CC1SCCCS1` [dithiane, 2-methyl-1,3-dithiane], which “Ksv … of p-terphenyl” value ([5]; in CH2Cl2) is on record?
A: Its value is “smaller than for MDT BP adduct”.
